Experimental data taken from patent publication US20220274938A1, “5-[(1S)-1-(4-BROMOPHENOXY)ETHYL]-2H-TETRAZOLE DERIVATIVES AND RELATED COMPOUNDS AS CLC-1 ION CHANNEL INHIBITORS FOR TREATING NEUROMUSCULAR DISORDERS” (NMD PHARMA A/S, priority 2019, published 2022).

What was measured:
Type in all cases: cell-based
CIC-1 ion channel = target: T1, CIC-1 ion channel (Rattus norvegicus, UniProt P35524); test: Electrophysiological measurement (Gm, three micro-electrodes) of compound inhibition of CIC-1 in rat soleus muscle fibres; conditions: approx. 30° C., four increasing compound concentrations, read-out: EC50 (inhibition of CIC-1 ion channel, reduction of Gm)
T1 construct: CIC-1 channels in native tissue of rat skeletal muscle fibres; from tissue; host or cells: whole soleus muscle of 12-14 week old Wistar rats
T1 sequence (P35524 1-994): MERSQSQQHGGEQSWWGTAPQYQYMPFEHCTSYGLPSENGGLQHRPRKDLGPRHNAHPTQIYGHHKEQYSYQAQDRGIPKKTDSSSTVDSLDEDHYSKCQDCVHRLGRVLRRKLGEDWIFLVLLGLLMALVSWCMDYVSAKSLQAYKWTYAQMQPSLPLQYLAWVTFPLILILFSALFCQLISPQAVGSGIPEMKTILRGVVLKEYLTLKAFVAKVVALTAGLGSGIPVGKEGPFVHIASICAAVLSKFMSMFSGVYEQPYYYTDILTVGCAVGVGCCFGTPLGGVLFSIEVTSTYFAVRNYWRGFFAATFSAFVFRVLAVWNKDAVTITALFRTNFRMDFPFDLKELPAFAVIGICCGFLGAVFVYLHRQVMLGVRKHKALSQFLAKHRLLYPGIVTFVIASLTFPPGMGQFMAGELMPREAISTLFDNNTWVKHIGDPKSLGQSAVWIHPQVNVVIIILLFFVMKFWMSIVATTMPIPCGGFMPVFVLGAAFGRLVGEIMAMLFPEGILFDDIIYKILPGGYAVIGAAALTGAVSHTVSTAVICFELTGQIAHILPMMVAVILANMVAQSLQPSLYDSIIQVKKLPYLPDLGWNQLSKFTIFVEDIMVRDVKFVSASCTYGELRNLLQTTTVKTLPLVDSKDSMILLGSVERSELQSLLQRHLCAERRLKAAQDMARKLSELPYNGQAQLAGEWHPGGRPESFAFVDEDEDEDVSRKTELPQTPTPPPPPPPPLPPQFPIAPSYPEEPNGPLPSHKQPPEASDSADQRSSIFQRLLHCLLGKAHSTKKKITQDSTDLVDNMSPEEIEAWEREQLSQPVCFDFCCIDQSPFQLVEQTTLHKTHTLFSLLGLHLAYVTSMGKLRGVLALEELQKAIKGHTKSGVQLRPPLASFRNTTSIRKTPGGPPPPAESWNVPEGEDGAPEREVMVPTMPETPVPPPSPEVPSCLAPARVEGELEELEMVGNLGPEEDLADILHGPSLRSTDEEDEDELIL
From the text: FIG. 1. […] Please note that the drawing illustrates only the impaled fibre although it is part of an intact muscle that contains many such fibres. All electrodes recorded the membrane potential of the fibre and the two peripheral electrodes were used to inject current (−30 nA, 50 ms). The electrodes were inserted with known inter-electrode distances (X1, X2 and X3). After insertion, current was passed first via the V1 electrode and then via the V3 electrode. The resulting deflections in the membrane voltage were measured by the other electrodes. The steady state deflections in membrane potential were measured and divided by the magnitude of the injected current (−30 nA) to obtain transfer resistances. These were next plotted against inter-electrode distances, and fitted to an exponential function (Panel B), from which Gm could be calculated using linear cable theory. The approach described in panel A and B, was repeated for several muscle fibres in the muscle during exposure at increasing concentrations of compound E-8, with approx. 10 fibres at each concentration. Average Gm at each concentration was plotted as a function of compound concentration in panel C, and fitted to a 4-parameter sigmoidal function from which the EC50 value for the compound was obtained (dashed line)
Apparent CIC-1 affinity was reported by the concentration of compound at which 50% of the compound's full inhibition of CIC-1 was observed (EC50).
CIC-1 Cl^− ion channels generate around 80% of the total membrane conductance (Gm) in resting skeletal muscle fibres of most animals including rat and human (Bretag, A H. Muscle chloride channels. Physiological Reviews, 1987, 67, 618-724). […] CIC-1 inhibition would in such recordings be reflected by a reduction of Gm.
Experimentally, Gm was measured in individual fibres of whole rat soleus muscles using a three micro-electrodes technique described in this example and in full detail elsewhere (Riisager et al., Determination of cable parameters in skeletal muscle fibres during repetitive firing of action potentials. Journal of Physiology, 2014, 592, 4417-4429). Briefly, intact rat soleus muscles were dissected out from 12-14 week old Wistar rats and placed in an experimental chamber that was perfused with a standard Krebs Ringer solution containing 122 mM NaCl, 25 mM NaHCO3, 2.8 mM KCl, 1.2 mM KH2PO4, 1.2 mM MgSO4, 1.3 mM CaCl2, 5.0 mM D-glucose. During experiments, the solution was kept at approx. 30° C. and continuously equilibrated with a mixture of 95% O2 and 5% CO2, pH˜7.4. The experimental chamber was placed in Nikon upright microscope that was used to visualize individual muscle fibres and the three electrodes (glass pipettes filled with 2 M potassium citrate). For Gm measurements, the electrodes were inserted into the same fibre with known inter-electrode distances of 0.35-0.5 mm (V1-V2, X1) and 1.1-1.5 mm (V1-V3, X3) (FIG. 1A). The membrane potential of the impaled muscle fibre was recorded by all electrodes. Two of the electrodes were furthermore used to inject 50 ms current pulses of −30 nA. […] The steady state voltage deflection at each distance was divided by the magnitude of current injected (−30 nA) and the resulting transfer resistances were plotted against inter-electrode distance and the data was fitted to a mono-exponential function from which Gm could be calculated using linear cable theory (FIG. 1B).
To establish a dose response relationship, Gm was first determined in 10 muscle fibres in the absence of compound and then at four increasing compound concentrations with Gm determinations in 5-10 fibres at each concentration. The average Gm values at each concentration were plotted against compound concentration and the data was fitted to sigmoidal function to obtain an EC50 value (FIG. 1C).

human CIC-1 channels = target: T2, human CIC-1 channels (Homo sapiens, UniProt P35523); test: Automated patch-clamp on the human isoform of CIC-1 expressed in CHO cells; conditions: compound added to the intracellular solution vs control cell patches, positive shift reflects inhibition
T2 construct: host or cells: CHO (Chinese hamster ovary) cells, cryopreserved, used directly after thawing
Protocol: The investigatory goal of these experiments was to evaluate how compounds affect the open probability and current amplitude of human CIC-1 channels expressed in CHO cells. Experiments were performed using an automated patch clamp system that allowed high throughput testing of whole cell patches together with both intracellular and extracellular addition of compound.
Automated whole cell patch clamp experiments were performed with the Qpatch 16 system (Sophion Bioscience, Ballerup, Denmark) at room temperature. Data acquisition and analysis were performed in the Qassay software (ver. 5.6, Odense).
To obtain tail currents, the membrane potential was stepped to −100 mV after each test voltage for 300 ms and then relaxed to −30 mV for 2 sec between sweeps (FIG. 3). I/V relationships for whole cell instant and steady state current amplitudes were obtained by plotting average current densities at the beginning and at the end of the 300 ms step against the membrane potential (FIG. 4).
In order to determine the relative overall open probability (Po), the instantaneous tail currents were normalized to the maximal tail current obtained following the most positive voltage step and plotted against the test voltage. Plots of normalized tail currents from each whole cell patch were then fitted to a Boltzmann function allowing determination of half activation voltages (V1/2, FIG. 5).
Osmolality adjusted to ˜320 using sucrose. Intracellular solutions contained: 80 mM CsF, 60 mM CsCl, 5/1 mM KOH/EGTA, 10 mM HEPES, 10 mM NaCl, pH adjusted to 7.2 with NaOH (2 M). Osmolality adjusted to ˜320 mOsm using sucrose.
Cells used in patch clamp experiments were Chinese hamster ovary cells (CHO) constitutively expressing human CIC-1 channels. The amino acid sequence encoded by the cDNA used to create this cell line was identical to the translated sequence for GenBank accession number NM_000083.2. Cells were produced by Charles River (Catalogue CT6175, Cleveland Ohio, USA) in a cryopreserved format. Experiments were performed on the cells directly after thawing (3×10^6 cells used in each experiment).
To evaluate the compound effect on CIC-1, when applied directly to the intracellular side of the cell membrane, the half activation voltage, V1/2, was determined from whole cell patches with compound added to the intracellular solution and then compared to V1/2 determined from control cell patches with only vehicle added to the intracellular solution. Additionally, the effect of extracellular added compound was evaluated by determine V1/2 and steady state current amplitudes before and after exchanging the extracellular solution to contain compound.
The difference in half activation voltage of CIC-1 channels, ΔV1/2, was determined as the difference between the cell patches treated intracellularly with compound and control cells patches and is reported in Table 4 below. A positive shift in ΔV1/2 is reflecting CIC-1 channel inhibition by the tested compound. P-values of <0.05 is considered significant.

[1] = test system: isolated rat soleus muscles; test: Measurement of force in an in vitro model: isolated rat soleus nerve-muscle preparation with tubocurarine; conditions: Rattus norvegicus, 40 min; 50 μM test compound, after 40 mins of compound exposure; 115 nM tubocurarine for 90 mins; read-out: Point increase (%) of initial force that was restored
Protocol: FIG. 2. […] Force traces from a representative muscle stimulated to contract in 1) control condition before addition of neuromuscular blocking agent, 2) the force response to stimulation after 90 minutes incubation with Tubocurarine. […] The traces presented in panel A (1, 2, 3), correspond to the dotted lines in panel B, respectively.
Recovery of force is quantified as the percentage of the force prior to tubocurarine that is recovered by the compound.
The current disclosure relates to compounds that inhibit CIC-1 ion channels and increase muscle excitability and thereby improve muscle function in clinical conditions where muscle activation is failing. Such conditions result in loss of contractile function of skeletal muscle, weakness and excessive fatigue. In this series of experiments the compounds were tested for their ability to restore contractile function of isolated rat muscle when the neuromuscular transmission had been compromised akin to neuromuscular disorders.
Experimentally, soleus muscles from 4-5 week old rats were isolated with the motor nerve remaining attached. The nerve-muscle preparations were mounted in experimental setups that enabled electrical stimulation of the motor nerve. Stimulation of the motor nerve led to activation of the muscle fibres and ensuing force production that was recorded. The nerve-muscle preparations were also in these experiments incubated in the standard Krebs Ringer (see example 5) and the solution was heated to 30° C. and continuously equilibrated with a mixture of 95% O2 and 5% CO2, pH˜7.4.
After mounting the nerve-muscle preparation in the experimental setup, the contractile function of the muscle was initially assessed under the control conditions (FIG. 2A). […] The experimental condition mimics the failing neuromuscular transmission in a range of neuromuscular disorders. After addition of tubocurarine the contractile force declined over the next 90 mins to 10-50% of the control force. 50 μM of the test compound was then added and the contractile force recovered despite the continued presence of tubocurarine. To quantify the ability of the compound to restore force the percentage of the initial force that was restored was determined after 40 mins of compound exposure (FIG. 2B) and the point increase is reported in Table 3.

T2 sequence (P35523 whole entry, canonical isoform): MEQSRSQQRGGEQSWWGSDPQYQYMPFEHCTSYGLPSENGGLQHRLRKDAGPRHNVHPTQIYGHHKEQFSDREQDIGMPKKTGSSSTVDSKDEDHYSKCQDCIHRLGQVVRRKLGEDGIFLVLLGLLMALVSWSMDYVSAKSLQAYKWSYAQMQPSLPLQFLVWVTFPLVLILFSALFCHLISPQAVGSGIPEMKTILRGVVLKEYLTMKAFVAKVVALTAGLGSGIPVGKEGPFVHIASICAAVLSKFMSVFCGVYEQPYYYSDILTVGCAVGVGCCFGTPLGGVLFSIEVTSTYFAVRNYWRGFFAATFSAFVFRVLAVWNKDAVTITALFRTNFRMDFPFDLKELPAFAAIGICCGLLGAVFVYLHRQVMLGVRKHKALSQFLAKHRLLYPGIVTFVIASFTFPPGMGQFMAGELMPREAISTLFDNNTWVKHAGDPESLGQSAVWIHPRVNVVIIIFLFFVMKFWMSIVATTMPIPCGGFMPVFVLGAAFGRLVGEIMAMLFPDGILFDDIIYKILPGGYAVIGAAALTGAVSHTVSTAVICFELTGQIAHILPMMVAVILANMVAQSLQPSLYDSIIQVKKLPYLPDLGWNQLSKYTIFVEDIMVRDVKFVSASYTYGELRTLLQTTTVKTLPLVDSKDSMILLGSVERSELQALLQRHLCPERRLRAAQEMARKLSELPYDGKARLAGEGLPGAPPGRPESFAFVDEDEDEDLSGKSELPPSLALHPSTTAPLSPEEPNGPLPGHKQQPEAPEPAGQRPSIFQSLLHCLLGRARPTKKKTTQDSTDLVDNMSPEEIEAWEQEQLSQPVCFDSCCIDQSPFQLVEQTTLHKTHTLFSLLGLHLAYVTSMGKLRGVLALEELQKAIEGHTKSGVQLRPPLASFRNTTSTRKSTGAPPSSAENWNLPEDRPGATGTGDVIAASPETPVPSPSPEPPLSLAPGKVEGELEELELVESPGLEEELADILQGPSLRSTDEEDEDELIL

EC50 (CIC-1 ion channel)	ΔV1/2 (difference in half activation voltage of CIC-1 channels) (human CIC-1 channels)	Structure (SMILES)	activation at 50 µM [1]
19.6 µM	26.6 mV	CC(C)[C@H](Oc1ccc(Br)cc1)C(=O)NC#N [Compound B-5, (2S)-2-(4-bromophenoxy)-N-cyano-3-methylbutanamide]	
	13.9 mV	CC[C@H](Oc1ccc(Br)cc1)c1nn[nH]n1 [Compound E-5, 5-[(1S)-1-(4-bromophenoxy)propyl]-2H-1,2,3,4-tetrazole]	
	21.2 mV	C[C@H](Oc1ccc(Cl)cc1)C(=O)NC#N [Compound B-4, (2S)-2-(4-chlorophenoxy)-N-cyanopropanamide]	

Structure (SMILES)	EC50 (CIC-1 ion channel)	ΔV1/2 (difference in half activation voltage of CIC-1 channels) (human CIC-1 channels)	activation at 50 µM [1]
CC(=O)N1CCC(ONC(=O)[C@H](C)Oc2ccc(Br)cc2)C1 (stereo partly drawn) [Compound C-8]		10.3 mV	45%
